Key:
[1] = test system: direct sown rice; test: Herbicidal effect test by soil treatment; assay type: in vivo, Oryza sativa; conditions: 1.6 g/a, 3 weeks after treatment
From the text: (§1) Herbicidal Effect Test by Soil Treatment
(§2) Sterilized diluvial soil was placed in a plastic box having a size of length 21 cm, width 13 cm and depth 7 cm, seeds Echinochloa crus-galli, Digitaria adscendes, Setaria viridis, Avena fatua, Black-grass, Abutilon avicennae, Ambrosia elatior, Amaranthus retroflexus, Chenopodium album, Polygonum blumei, Stellaria media, Zea mays (corn), Glycine max (soybean), Oryza sativa (rice), Triticum aestivum (wheat) and Beta vulgaris (beat) were sown interspatially, covered with about 1.5 cm of soil, and then the wettable powder of the present invention prepared according to Formulation Example 1 was diluted with water so as to give a predetermined formulation amount, and the surface of the soil was uniformly treated with the diluted wettable powder by use of a small-sized spray. The herbicidal effect for each plant was investigated 3 weeks after treatment with the herbicide according to the criteria indicated in Test Example 1.

[2] = test system: Chenopodium album; test: Herbicidal effect test by soil treatment; assay type: in vivo; conditions: 1.6 g/a, 3 weeks after treatment
From the text: as §1, §2

[3] = test system: soybean (Glycine max); test: Herbicidal effect test by soil treatment; assay type: in vivo; conditions: 1.6 g/a, 3 weeks after treatment
From the text: as §1, §2

[4] = test system: Abutilon avicennae; test: Herbicidal effect test by soil treatment; assay type: in vivo; conditions: 1.6 g/a, 3 weeks after treatment
From the text: as §1, §2

[5] = test system: Digitaria adscendes; test: Herbicidal effect test by soil treatment; assay type: in vivo; conditions: 1.6 g/a, 3 weeks after treatment
From the text: as §1, §2

[6] = test system: Beta vulgaris (beet); test: Herbicidal effect test by soil treatment; assay type: in vivo; conditions: 1.6 g/a, 3 weeks after treatment
From the text: as §1, §2

[7] = test system: Echinochloa crus-galli; test: Herbicidal effect test by soil treatment; assay type: in vivo; conditions: 1.6 g/a, 3 weeks after treatment
From the text: as §1, §2

[8] = test system: corn (Zea mays); test: Herbicidal effect test by soil treatment; assay type: in vivo; conditions: 1.6 g/a, 3 weeks after treatment
From the text: as §1, §2

[9] = test system: Amaranthus retroflexus; test: Herbicidal effect test by soil treatment; assay type: in vivo; conditions: 1.6 g/a, 3 weeks after treatment
From the text: as §1, §2

[10] = test system: Polygonum blumei; test: Herbicidal effect test by soil treatment; assay type: in vivo; conditions: 1.6 g/a, 3 weeks after treatment
From the text: as §1, §2

[11] = test system: Stellaria media; test: Herbicidal effect test by soil treatment; assay type: in vivo; conditions: 1.6 g/a, 3 weeks after treatment
From the text: as §1, §2

[12] = test system: Setaria viridis; test: Herbicidal effect test by soil treatment; assay type: in vivo; conditions: 1.6 g/a, 3 weeks after treatment
From the text: as §1, §2

[13] = test system: Ambrosia elatior; test: Herbicidal effect test by soil treatment; assay type: in vivo; conditions: 1.6 g/a, 3 weeks after treatment
From the text: as §1, §2

[14] = test system: Echinochloa crus-galli; test: Herbicidal effect test in submerged condition by treatment before weed-generation (1); assay type: in vivo; conditions: 0.64 g/a, water surface treated on day of sowing, 3 weeks after treatment
From the text: (§3) Herbicidal Effect Test in Submerged Condition by Treatment Before Weed-Generation (1)
(§4) After alluvial soil was placed in a styrol cup of 1/30000 are, water was poured therein and mixed, and adjusted to a submerged condition of water depth 4 cm. After seeds of Echinochloa crus-galli, Scirpus juncoides and Monochoria vaginalis were sown in the cup, rice seedlings at 2.5th leaf stage were transplanted. On the day when the seeds were sown, the wettable powder of the present invention prepared according to Formulation Example 1 was diluted with water so as to give a predetermined formulation amount, and the surface of the water was treated with the diluted wettable powder. The plants were grown by putting the cup in a green house at 25 to 30° C., and investigated on herbicidal effect against each weed 3 weeks after treatment with the herbicide according to the following criteria.
(§5) 5 Herbicidal rate 90% or more (almost complete death)
(§6) 4 Herbicidal rate 70% or more and less than 90%
(§7) 3 Herbicidal rate 40% or more and less than 70%
(§8) 2 Herbicidal rate 20% or more and less than 40%
(§9) 1 Herbicidal rate 5% or more and less than 20%
(§10) 0 Herbicidal rate 5% or less (little effect)

[15] = test system: Scirpus juncoides; test: as above; assay type: in vivo; conditions: 0.64 g/a, water surface treated on day of sowing, 3 weeks after treatment
From the text: as §3, §4, §5, §6, §7, §8, §9, §10

[16] = test system: Monochoria vaginalis; test: as above; assay type: in vivo; conditions: 0.64 g/a, water surface treated on day of sowing, 3 weeks after treatment
From the text: as §3, §4, §5, §6, §7, §8, §9, §10

[17] = test system: Echinochloa crus-galli; test: Herbicidal effect test in submerged condition by treatment during weed-growth stage (1); assay type: in vivo; conditions: 0.64 g/a, treated at 1st to 2nd leaf stage, 3 weeks after treatment
Procedure: (§11) Herbicidal Effect Test in Submerged Condition by Treatment During Weed-Growth Stage (1) After alluvial soil was placed in a styrol cup of 1/30000 are, water was poured therein and mixed, and adjusted to a submerged condition of water depth 4 cm. After seeds of Echinochloa crus-galli, Scirpus juncoides and Monochoria vaginalis were sown in the cup, the plants were grown by putting the cup in a green house at 25 to 30° C. When Echinochloa crus-galli, Scirpus juncoides and Monochoria vaginalis reached 1st to 2nd leaf stage, the wettable powder of the present invention prepared according to Formulation Example 1 was diluted with water so as to give a predetermined formulation amount, and the surface of the water was treated with the diluted wettable powder. The herbicidal effect for each plant was investigated 3 weeks after treatment with the herbicide according to the criteria indicated in Test Example 1.

[18] = test system: Scirpus juncoides; test: as above; assay type: in vivo; conditions: 0.64 g/a, treated at 1st to 2nd leaf stage, 3 weeks after treatment
Procedure: as §11

[19] = test system: Monochoria vaginalis; test: as above; assay type: in vivo; conditions: 0.64 g/a, treated at 1st to 2nd leaf stage, 3 weeks after treatment
Procedure: as §11

[20] = test system: direct sown rice; test: Herbicidal effect test by foliage treatment; assay type: in vivo, Oryza sativa; conditions: 1.6 g/a; foliage treatment after growth of 14 days; 3 weeks after treatment
From the text: (§12) Herbicidal Effect Test by Foliage Treatment
(§13) Sterilized diluvial soil was placed in a plastic box having a size of length 21 cm, width 13 cm and depth 7 cm, seeds of Echinochloa crus-galli, Digitaria adscendes, Setaria viridis, Avena fatua, Black-grass, Abutilon avicennae, Ambrosia elatior, Amaranthus retroflexus, Chenopodium album, Polygonum blumei, Stellaria media, Zea mays, Glycine max, Oryza sativa, Triticum aestivum and Beta vulgaris were sown interspatially, covered with about 1.5 cm of soil, and then the plants were grown by putting the box in a green house at 25 to 30° C. After growth of 14 days, the wettable powder of the present invention prepared according to Formulation Example 1 was diluted with water so as to give a predetermined formulation amount, and the foliage part was uniformly treated with the diluted wettable powder by use of a small-sized spray. The herbicidal effect for each plant was investigated 3 weeks after treatment with the herbicide according to the criteria indicated in Test Example 1.

[21] = test system: Chenopodium album; test: Herbicidal effect test by foliage treatment; assay type: in vivo; conditions: 1.6 g/a; foliage treatment after growth of 14 days; 3 weeks after treatment
From the text: as §12, §13

[22] = test system: soybean (Glycine max); test: Herbicidal effect test by foliage treatment; assay type: in vivo; conditions: 1.6 g/a; foliage treatment after growth of 14 days; 3 weeks after treatment
From the text: as §12, §13

[23] = test system: Abutilon avicennae; test: Herbicidal effect test by foliage treatment; assay type: in vivo; conditions: 1.6 g/a; foliage treatment after growth of 14 days; 3 weeks after treatment
From the text: as §12, §13

[24] = test system: Digitaria adscendes; test: Herbicidal effect test by foliage treatment; assay type: in vivo; conditions: 1.6 g/a; foliage treatment after growth of 14 days; 3 weeks after treatment
From the text: as §12, §13

[25] = test system: Beta vulgaris (beet); test: Herbicidal effect test by foliage treatment; assay type: in vivo; conditions: 1.6 g/a; foliage treatment after growth of 14 days; 3 weeks after treatment
From the text: as §12, §13

[26] = test system: Echinochloa crus-galli; test: Herbicidal effect test by foliage treatment; assay type: in vivo; conditions: 1.6 g/a; foliage treatment after growth of 14 days; 3 weeks after treatment
From the text: as §12, §13

[27] = test system: corn (Zea mays); test: Herbicidal effect test by foliage treatment; assay type: in vivo; conditions: 1.6 g/a; foliage treatment after growth of 14 days; 3 weeks after treatment
From the text: as §12, §13

[28] = test system: Avena fatua; test: Herbicidal effect test by foliage treatment; assay type: in vivo; conditions: 1.6 g/a; foliage treatment after growth of 14 days; 3 weeks after treatment
From the text: as §12, §13

[29] = test system: Amaranthus retroflexus; test: Herbicidal effect test by foliage treatment; assay type: in vivo; conditions: 1.6 g/a; foliage treatment after growth of 14 days; 3 weeks after treatment
From the text: as §12, §13

[30] = test system: Polygonum blumei; test: Herbicidal effect test by foliage treatment; assay type: in vivo; conditions: 1.6 g/a; foliage treatment after growth of 14 days; 3 weeks after treatment
From the text: as §12, §13

[31] = test system: Stellaria media; test: Herbicidal effect test by foliage treatment; assay type: in vivo; conditions: 1.6 g/a; foliage treatment after growth of 14 days; 3 weeks after treatment
From the text: as §12, §13

[32] = test system: Black-grass; test: Herbicidal effect test by foliage treatment; assay type: in vivo; conditions: 1.6 g/a; foliage treatment after growth of 14 days; 3 weeks after treatment
From the text: as §12, §13

[33] = test system: Setaria viridis; test: Herbicidal effect test by foliage treatment; assay type: in vivo; conditions: 1.6 g/a; foliage treatment after growth of 14 days; 3 weeks after treatment
From the text: as §12, §13

[34] = test system: Triticum aestivum (wheat); test: Herbicidal effect test by foliage treatment; assay type: in vivo; conditions: 1.6 g/a; foliage treatment after growth of 14 days; 3 weeks after treatment
From the text: as §12, §13

[35] = test system: Ambrosia elatior; test: Herbicidal effect test by foliage treatment; assay type: in vivo; conditions: 1.6 g/a; foliage treatment after growth of 14 days; 3 weeks after treatment
From the text: as §12, §13

COc1cc(OC)nc(NC(=O)NS(=O)(=O)c2c(C3=NOCC(CI)O3)c(Cl)nn2C)n1 (centres unmarked) [Compound 2, N-((4,6-dimethoxypyrimidin-2-yl)aminocarbonyl)-3-chloro-4-(5-iodomethyl-5H,6H-1,4,2-dioxadin-3-yl)-1-methylpyrazole-5-sulfonamide]
herbicidal effect, d: direct sown rice [1]: 0 (Herbicidal rate 5% or less (little effect)) | herbicidal effect, K: Chenopodium album [2]: 4 (Herbicidal rate 70% or more and less than 90%) | herbicidal effect, c: soybean (Glycine max) [3]: 0 (Herbicidal rate 5% or less (little effect)) | herbicidal effect, H: Abutilon avicennae [4]: 0 (Herbicidal rate 5% or less (little effect)) | herbicidal effect, D: Digitaria adscendes [5]: 0 (Herbicidal rate 5% or less (little effect)) | herbicidal effect, f: Beta vulgaris (beet) [6]: 2 (Herbicidal rate 20% or more and less than 40%) | herbicidal effect, A: Echinochloa crus-galli [7]: 0 (Herbicidal rate 5% or less (little effect)) | herbicidal effect, b: corn (Zea mays) [8]: 0 (Herbicidal rate 5% or less (little effect)) | herbicidal effect, J: Amaranthus retroflexus [9]: 1 (Herbicidal rate 5% or more and less than 20%) | herbicidal effect, L: Polygonum blumei [10]: 0 (Herbicidal rate 5% or less (little effect)) | herbicidal effect, M: Stellaria media [11]: 3 (Herbicidal rate 40% or more and less than 70%) | herbicidal effect, E: Setaria viridis [12]: 0 (Herbicidal rate 5% or less (little effect)) | herbicidal effect, I: Ambrosia elatior [13]: 3 (Herbicidal rate 40% or more and less than 70%) | herbicidal effect, A: Echinochloa crus-galli [14]: 4 (Herbicidal rate 70% or more and less than 90%) | herbicidal effect, B: Scirpus juncoides [15]: 5 (Herbicidal rate 90% or more (almost complete death)) | herbicidal effect, C: Monochoria vaginalis [16]: 5 (Herbicidal rate 90% or more (almost complete death)) | herbicidal effect, A: Echinochloa crus-galli [17]: 2 (Herbicidal rate 20% or more and less than 40%) | herbicidal effect, B: Scirpus juncoides [18]: 4 (Herbicidal rate 70% or more and less than 90%) | herbicidal effect, C: Monochoria vaginalis [19]: 4 (Herbicidal rate 70% or more and less than 90%) | herbicidal effect, d: direct sown rice [20]: 0 (Herbicidal rate 5% or less (little effect)) | herbicidal effect, K: Chenopodium album [21]: 4 (Herbicidal rate 70% or more and less than 90%) | herbicidal effect, c: soybean (Glycine max) [22]: 4 (Herbicidal rate 70% or more and less than 90%) | herbicidal effect, H: Abutilon avicennae [23]: 5 (Herbicidal rate 90% or more (almost complete death)) | herbicidal effect, D: Digitaria adscendes [24]: 1 (Herbicidal rate 5% or more and less than 20%) | herbicidal effect, f: Beta vulgaris (beet) [25]: 4 (Herbicidal rate 70% or more and less than 90%) | herbicidal effect, A: Echinochloa crus-galli [26]: 3 (Herbicidal rate 40% or more and less than 70%) | herbicidal effect, b: corn (Zea mays) [27]: 4 (Herbicidal rate 70% or more and less than 90%) | herbicidal effect, F: Avena fatua [28]: 0 (Herbicidal rate 5% or less (little effect)) | herbicidal effect, J: Amaranthus retroflexus [29]: 0 (Herbicidal rate 5% or less (little effect)) | herbicidal effect, L: Polygonum blumei [30]: 0 (Herbicidal rate 5% or less (little effect)) | herbicidal effect, M: Stellaria media [31]: 5 (Herbicidal rate 90% or more (almost complete death)) | herbicidal effect, G: Black-grass [32]: 1 (Herbicidal rate 5% or more and less than 20%) | herbicidal effect, E: Setaria viridis [33]: 1 (Herbicidal rate 5% or more and less than 20%) | herbicidal effect, e: Triticum aestivum (wheat) [34]: 0 (Herbicidal rate 5% or less (little effect)) | herbicidal effect, I: Ambrosia elatior [35]: 4 (Herbicidal rate 70% or more and less than 90%)

From patent publication US7709636B2, “Pyrazole sulfonylurea compound and herbicide” (Nissan Chemical Industries, Ltd., priority 2004, dated 2010)
